Among the data in ChEMBL document CHEMBL5653631, “A Potent and Selective ULK1 Inhibitor Suppresses Autophagy and Sensitizes Cancer Cells to Nutrient Stress” (iScience, 2018) are fold change (FC) and inhibition values, retold here.

As a reminder, the inhibition is how much of the control response was suppressed.

Test [1] has as its target Protein kinase C eta type (Homo sapiens) (UniProt P24723). The test can be described thus: Inhibition of human recombinant PKCH at 40 nM related to control ULK1.
For test [2], the target named is Fibroblast growth factor receptor 4 (Homo sapiens) (UniProt P22455). Nature of the test: Inhibition of human recombinant FGFR4 at 40 nM in presence of ATP by radiometric assay relative to control.
The target in test [3] is MAP kinase-activated protein kinase 2 (Homo sapiens) (UniProt P49137). Nature of the test: Inhibition of human recombinant MAPKAPK2 at 40 nM in presence of ATP by radiometric assay relative to control.
The target of test [4] is T1, Tyrosine-protein kinase ZAP-70 (Homo sapiens) (UniProt P43403).
T1 sequence (whole entry): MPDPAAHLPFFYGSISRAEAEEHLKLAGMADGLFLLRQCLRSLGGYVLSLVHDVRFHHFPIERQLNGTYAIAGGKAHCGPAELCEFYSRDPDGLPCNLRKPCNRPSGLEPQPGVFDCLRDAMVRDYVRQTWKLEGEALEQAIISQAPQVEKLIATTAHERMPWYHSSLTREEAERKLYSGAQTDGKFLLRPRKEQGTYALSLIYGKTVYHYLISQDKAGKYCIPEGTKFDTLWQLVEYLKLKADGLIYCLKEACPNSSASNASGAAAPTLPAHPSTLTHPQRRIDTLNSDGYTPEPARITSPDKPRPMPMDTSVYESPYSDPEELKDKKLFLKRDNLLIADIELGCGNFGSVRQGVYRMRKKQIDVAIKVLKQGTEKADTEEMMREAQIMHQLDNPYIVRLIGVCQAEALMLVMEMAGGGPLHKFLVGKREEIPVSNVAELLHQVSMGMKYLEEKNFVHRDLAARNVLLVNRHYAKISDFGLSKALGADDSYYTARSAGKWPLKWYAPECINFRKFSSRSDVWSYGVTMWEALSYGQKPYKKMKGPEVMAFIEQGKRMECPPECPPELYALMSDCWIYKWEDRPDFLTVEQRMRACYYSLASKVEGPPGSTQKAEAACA
The test can be described thus: Inhibition of human recombinant ZAP70 at 500 nM related to control ULK1.

The target in test [5] is Vascular endothelial growth factor receptor 2 (Homo sapiens) (UniProt P35968). The test can be described thus: Inhibition of human recombinant KDR at 500 nM related to control ULK1.
For test [6], the target named is T2, Serine/threonine-protein kinase BRSK2 (Homo sapiens) (UniProt Q8IWQ3).
T2 sequence (whole entry): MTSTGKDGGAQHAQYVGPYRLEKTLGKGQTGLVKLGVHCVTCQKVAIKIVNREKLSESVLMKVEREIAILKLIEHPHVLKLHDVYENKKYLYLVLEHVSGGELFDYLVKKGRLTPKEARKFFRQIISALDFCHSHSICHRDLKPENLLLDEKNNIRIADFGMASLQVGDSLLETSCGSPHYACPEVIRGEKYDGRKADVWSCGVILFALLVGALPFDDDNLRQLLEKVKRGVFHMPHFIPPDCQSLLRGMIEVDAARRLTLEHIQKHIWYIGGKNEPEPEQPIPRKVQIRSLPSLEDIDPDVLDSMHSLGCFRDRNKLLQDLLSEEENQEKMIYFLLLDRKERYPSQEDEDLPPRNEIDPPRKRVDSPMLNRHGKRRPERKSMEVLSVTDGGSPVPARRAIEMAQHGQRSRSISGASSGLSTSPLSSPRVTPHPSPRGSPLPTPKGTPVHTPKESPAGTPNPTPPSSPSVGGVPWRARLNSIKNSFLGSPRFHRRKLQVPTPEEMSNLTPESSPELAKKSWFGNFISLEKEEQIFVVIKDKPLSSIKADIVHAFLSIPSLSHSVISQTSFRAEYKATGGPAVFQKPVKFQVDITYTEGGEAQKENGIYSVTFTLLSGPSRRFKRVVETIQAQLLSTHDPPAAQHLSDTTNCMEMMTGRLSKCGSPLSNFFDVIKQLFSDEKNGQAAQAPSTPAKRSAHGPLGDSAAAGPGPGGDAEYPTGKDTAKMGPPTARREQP
The test can be described thus: Inhibition of human recombinant BRSK2 at 500 nM related to control ULK1.

In test [7] the target is T3, Cytoplasmic tyrosine-protein kinase BMX (Homo sapiens) (UniProt P51813).
T3 sequence (whole entry): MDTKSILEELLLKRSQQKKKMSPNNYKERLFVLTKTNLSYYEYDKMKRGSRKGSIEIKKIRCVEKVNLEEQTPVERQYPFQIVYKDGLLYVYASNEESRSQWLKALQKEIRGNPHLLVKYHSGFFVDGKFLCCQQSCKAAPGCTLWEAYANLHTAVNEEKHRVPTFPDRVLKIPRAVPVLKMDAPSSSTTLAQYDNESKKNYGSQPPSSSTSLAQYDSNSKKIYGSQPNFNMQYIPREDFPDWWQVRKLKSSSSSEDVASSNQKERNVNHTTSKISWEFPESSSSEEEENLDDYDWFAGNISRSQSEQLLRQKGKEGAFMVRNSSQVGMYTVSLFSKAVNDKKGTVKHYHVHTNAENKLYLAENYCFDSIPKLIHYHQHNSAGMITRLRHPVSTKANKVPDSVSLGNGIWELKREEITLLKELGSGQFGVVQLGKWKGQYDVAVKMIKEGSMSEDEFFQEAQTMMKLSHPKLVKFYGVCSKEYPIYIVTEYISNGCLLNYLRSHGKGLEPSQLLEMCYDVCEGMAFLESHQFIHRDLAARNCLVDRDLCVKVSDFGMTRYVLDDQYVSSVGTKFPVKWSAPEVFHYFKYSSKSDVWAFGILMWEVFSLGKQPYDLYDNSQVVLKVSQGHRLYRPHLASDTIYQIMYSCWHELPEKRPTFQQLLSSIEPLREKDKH
The test can be described thus: Inhibition of human recombinant BMX at 500 nM related to control ULK1.

In test [8] the target is Serine/threonine-protein kinase SIK1 (Homo sapiens) (UniProt P57059). Nature of the test: Inhibition of human recombinant SIK at 500 nM related to control ULK1.
In test [9] the target is Ephrin type-A receptor 4 (Homo sapiens) (UniProt P54764). Nature of the test: Inhibition of human recombinant EphA4 at 15 nM in presence of ATP by radiometric assay relative to control.
Chain of Ephrin type-A receptor 4 (Homo sapiens) (P54764 whole entry): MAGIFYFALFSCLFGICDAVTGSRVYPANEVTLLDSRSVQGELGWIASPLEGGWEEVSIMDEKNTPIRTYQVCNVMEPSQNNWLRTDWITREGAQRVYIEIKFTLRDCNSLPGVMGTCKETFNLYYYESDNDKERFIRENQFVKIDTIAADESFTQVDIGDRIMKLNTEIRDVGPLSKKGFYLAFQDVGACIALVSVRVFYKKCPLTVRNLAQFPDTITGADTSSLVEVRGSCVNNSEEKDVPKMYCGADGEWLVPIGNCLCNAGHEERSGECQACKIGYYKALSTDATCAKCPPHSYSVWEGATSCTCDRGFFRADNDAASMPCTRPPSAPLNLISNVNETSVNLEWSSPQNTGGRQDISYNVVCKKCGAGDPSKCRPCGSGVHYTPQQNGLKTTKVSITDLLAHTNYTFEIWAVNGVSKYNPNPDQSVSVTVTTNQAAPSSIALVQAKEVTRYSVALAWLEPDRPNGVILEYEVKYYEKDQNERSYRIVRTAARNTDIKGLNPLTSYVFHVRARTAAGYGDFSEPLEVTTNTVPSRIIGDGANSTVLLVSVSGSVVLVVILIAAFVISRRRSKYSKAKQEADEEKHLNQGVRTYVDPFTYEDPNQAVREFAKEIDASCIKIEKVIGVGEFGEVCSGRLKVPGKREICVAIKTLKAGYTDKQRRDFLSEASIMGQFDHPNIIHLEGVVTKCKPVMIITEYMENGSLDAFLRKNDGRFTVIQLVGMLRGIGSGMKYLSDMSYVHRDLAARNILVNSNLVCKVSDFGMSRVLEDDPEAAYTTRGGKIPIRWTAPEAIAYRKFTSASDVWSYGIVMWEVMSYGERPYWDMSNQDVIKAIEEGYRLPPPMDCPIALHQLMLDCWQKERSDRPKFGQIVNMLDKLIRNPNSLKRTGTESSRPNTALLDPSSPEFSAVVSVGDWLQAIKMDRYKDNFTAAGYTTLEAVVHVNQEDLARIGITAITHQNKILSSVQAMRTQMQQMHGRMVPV

Chain of Vascular endothelial growth factor receptor 2 (Homo sapiens) (P35968 whole entry): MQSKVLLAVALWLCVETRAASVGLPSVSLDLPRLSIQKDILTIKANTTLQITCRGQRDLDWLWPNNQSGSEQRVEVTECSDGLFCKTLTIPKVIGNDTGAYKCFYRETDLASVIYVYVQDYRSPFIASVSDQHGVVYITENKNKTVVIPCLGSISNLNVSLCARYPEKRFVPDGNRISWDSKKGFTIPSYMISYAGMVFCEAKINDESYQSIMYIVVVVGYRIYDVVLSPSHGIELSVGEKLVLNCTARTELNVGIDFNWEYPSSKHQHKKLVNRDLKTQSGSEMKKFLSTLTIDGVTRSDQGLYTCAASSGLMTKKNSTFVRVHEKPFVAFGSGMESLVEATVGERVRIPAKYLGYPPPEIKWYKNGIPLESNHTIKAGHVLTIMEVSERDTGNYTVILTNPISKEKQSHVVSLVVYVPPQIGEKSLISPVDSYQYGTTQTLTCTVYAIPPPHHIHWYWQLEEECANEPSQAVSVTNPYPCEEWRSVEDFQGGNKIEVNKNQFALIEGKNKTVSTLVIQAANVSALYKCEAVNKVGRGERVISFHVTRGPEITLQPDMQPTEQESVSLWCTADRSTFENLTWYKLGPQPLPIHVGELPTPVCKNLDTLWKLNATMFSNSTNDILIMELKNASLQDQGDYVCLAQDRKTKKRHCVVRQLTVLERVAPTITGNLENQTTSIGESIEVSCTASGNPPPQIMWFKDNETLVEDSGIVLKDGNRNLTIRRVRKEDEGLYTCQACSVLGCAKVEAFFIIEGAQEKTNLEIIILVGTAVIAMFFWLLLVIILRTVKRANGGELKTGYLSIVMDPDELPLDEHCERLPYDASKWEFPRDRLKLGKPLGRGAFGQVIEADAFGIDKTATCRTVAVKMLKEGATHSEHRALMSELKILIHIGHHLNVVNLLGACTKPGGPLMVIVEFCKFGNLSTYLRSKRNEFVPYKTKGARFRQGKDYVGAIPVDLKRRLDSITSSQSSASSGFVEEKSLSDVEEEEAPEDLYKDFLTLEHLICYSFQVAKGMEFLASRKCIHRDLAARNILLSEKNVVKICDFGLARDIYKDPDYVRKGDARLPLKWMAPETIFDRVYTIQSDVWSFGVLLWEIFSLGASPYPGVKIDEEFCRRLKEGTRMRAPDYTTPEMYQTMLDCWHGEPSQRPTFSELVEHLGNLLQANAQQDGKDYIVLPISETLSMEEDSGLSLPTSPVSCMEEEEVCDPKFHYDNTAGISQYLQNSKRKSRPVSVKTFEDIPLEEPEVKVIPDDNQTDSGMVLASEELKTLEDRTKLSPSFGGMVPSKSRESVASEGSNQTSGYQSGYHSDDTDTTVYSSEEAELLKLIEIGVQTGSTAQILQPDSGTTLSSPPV
Chain of Protein kinase C eta type (Homo sapiens) (P24723 whole entry): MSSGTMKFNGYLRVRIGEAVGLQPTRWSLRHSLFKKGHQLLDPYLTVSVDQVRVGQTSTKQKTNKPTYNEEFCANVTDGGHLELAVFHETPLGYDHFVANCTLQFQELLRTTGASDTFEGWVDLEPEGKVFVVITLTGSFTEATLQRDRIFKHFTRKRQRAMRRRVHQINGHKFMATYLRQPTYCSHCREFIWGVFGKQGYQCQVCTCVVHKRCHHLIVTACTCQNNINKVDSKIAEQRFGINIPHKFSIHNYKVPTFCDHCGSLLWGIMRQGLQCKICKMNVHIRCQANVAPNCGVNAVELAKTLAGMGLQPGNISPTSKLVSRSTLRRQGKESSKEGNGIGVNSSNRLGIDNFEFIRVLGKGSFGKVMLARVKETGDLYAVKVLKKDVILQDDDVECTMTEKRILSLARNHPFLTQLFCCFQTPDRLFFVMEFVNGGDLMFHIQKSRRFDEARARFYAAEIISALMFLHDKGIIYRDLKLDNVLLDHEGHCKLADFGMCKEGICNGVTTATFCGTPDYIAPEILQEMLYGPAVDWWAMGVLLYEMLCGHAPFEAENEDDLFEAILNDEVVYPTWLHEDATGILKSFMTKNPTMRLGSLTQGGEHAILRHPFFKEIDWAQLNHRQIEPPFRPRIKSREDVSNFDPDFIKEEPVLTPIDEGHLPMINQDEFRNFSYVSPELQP
Chain of Serine/threonine-protein kinase SIK1 (Homo sapiens) (P57059 whole entry): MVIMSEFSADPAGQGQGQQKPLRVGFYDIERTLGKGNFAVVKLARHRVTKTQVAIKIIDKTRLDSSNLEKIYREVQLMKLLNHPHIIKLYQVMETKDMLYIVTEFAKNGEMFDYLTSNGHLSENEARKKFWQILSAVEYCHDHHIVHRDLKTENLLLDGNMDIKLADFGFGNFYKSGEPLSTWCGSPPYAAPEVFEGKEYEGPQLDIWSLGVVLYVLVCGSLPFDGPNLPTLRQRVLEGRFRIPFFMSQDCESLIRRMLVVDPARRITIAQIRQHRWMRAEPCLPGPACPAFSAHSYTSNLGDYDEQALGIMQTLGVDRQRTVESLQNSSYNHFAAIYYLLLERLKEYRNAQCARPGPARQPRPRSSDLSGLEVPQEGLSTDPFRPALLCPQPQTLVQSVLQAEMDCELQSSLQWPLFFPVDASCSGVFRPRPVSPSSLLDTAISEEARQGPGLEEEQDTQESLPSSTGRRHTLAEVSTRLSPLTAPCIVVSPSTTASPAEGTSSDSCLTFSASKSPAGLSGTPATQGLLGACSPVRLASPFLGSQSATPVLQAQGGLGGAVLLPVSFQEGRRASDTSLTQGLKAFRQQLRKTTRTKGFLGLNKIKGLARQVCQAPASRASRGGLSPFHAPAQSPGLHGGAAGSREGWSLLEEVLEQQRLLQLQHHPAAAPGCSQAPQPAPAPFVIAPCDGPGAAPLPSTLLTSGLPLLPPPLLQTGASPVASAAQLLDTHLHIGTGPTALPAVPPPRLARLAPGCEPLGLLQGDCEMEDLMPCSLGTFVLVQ
Chain of MAP kinase-activated protein kinase 2 (Homo sapiens) (P49137 whole entry, looked up): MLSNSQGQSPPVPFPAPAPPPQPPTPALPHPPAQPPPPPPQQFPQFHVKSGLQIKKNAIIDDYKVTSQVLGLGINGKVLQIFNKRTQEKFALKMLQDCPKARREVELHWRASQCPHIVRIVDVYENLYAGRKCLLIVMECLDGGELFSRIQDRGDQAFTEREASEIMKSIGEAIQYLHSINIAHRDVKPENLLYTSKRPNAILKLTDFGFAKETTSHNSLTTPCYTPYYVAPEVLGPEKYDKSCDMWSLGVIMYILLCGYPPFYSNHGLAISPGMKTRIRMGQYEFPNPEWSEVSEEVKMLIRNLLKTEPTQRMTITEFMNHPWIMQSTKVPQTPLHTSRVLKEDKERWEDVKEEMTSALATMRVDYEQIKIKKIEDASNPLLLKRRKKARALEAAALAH
Chain of Fibroblast growth factor receptor 4 (Homo sapiens) (P22455 22-802 limits assumed): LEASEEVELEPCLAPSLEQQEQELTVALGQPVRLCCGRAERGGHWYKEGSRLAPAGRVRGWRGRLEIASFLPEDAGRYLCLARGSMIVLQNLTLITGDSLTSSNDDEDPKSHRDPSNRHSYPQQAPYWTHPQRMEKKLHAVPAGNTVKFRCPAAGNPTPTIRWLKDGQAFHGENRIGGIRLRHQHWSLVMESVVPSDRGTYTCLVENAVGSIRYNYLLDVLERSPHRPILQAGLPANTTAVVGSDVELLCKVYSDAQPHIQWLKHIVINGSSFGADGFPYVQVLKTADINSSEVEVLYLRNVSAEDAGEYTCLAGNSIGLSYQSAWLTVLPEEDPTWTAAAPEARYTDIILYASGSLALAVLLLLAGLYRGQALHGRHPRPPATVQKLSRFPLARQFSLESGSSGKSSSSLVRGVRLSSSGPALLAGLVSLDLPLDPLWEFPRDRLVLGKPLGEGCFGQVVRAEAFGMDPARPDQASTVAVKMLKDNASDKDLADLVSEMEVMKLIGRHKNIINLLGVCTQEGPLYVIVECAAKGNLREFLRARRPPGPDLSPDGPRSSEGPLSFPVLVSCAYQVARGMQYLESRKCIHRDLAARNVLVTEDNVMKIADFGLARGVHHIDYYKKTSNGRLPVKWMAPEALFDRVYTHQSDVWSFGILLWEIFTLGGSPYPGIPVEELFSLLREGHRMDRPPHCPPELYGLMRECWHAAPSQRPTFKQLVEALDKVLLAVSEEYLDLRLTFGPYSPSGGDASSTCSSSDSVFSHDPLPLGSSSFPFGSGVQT

With `O=C(N[C@@H](C1CC1)C(F)(F)F)c1cc(-c2cnn3cc(-c4ccc(F)cc4)cnc23)cs1`, in [1], the fold change (FC) turned out to be 0. For the same molecule, the inhibition in test [2] and in [3] was 0% throughout.
Consider `CNC(=O)c1ccccc1Oc1nc(Nc2cc(OC)c(OC)c(OC)c2)ncc1Br`, for which the fold change (FC) in [4] was found to be 0.01; in test [5], 0; in [6] it was 0.04; in test [7], 0.22; in [8], 0.27.
Turning to `CC(C)[C@H](NC(=O)c1cc(-c2cnn3cc(-c4ccc(OCCN5CCCCC5)cc4)cnc23)cs1)C(F)(F)F`, the inhibition in test [9] worked out at 0%.
